Assay results: article PMC11995724, “Antibiotic target discovery by integrated phenotypic and activity-based profiling of electrophilic fragments” (Cell chemical biology, 2025)

Experiment: in vitro
Conditions: human, hek293t cells

SMILES | viability at 48 h, 25 µM
N#CC(=Cc1ccccc1)C(=O)Nc1nnn[nH]1 [8-J14, 2-cyano-3-phenyl-N-(1H-1,2,3,4-tetrazol-5-yl)prop-2-enamide] | 111%
CCC1SC(=C(C#N)C(N)=O)N(c2ccc(C)cc2)C1=O (centres unmarked) [8-J15, 2-cyano-2-[5-ethyl-3-(4-methylphenyl)-4-oxo-1,3-thiazolidin-2-ylidene]acetamide] | 117%
Cc1cc(C=C(C#N)C(=O)NCc2ccco2)cc(C)c1O [8-J16, 2-cyano-N-[(furan-2-yl)methyl]-3-(4-hydroxy-3,5-dimethylphenyl)prop-2-enamide] | 114%
Cc1ccc(NC(=O)C(C#N)=Cc2cccc([N+](=O)[O-])c2)cc1 [8-J17, 2-cyano-N-(4-methylphenyl)-3-(3-nitrophenyl)prop-2-enamide] | 88.1%
COc1ccc(C=C(C#N)C(=O)NC(C)c2ccccc2)cc1O (centres unmarked) [8-J18, 2-cyano-3-(3-hydroxy-4-methoxyphenyl)-N-(1-phenylethyl)prop-2-enamide] | 93.3%
COc1ccc(C=C(C#N)C(=O)Nc2ccccc2OC)cc1O [8-J19, 2-cyano-3-(3-hydroxy-4-methoxyphenyl)-N-(2-methoxyphenyl)prop-2-enamide] | 107%
N#CC(=Cc1ccc(OC(F)F)cc1)C(=O)N1CCCCC1 [8-J20, 3-[4-(difluoromethoxy)phenyl]-2-(piperidine-1-carbonyl)prop-2-enenitrile] | 82.8%
N#CC(=Cc1cccc(Cl)c1Cl)C(N)=O [8-J21, 2-cyano-3-(2,3-dichlorophenyl)prop-2-enamide] | 121%
N#CC(=Cc1cccc(F)c1)C(=O)NCCc1ccccc1 [8-J22, 2-cyano-3-(3-fluorophenyl)-N-(2-phenylethyl)prop-2-enamide] | 103%
COc1ccc(C=C(C#N)C(=O)Nc2ccc(Cl)cc2Cl)cc1 [8-K03, 2-cyano-N-(2,4-dichlorophenyl)-3-(4-methoxyphenyl)prop-2-enamide] | 104%
COc1cccc(NC(=O)C(C#N)=Cc2csnn2)c1 [8-K04, 2-cyano-N-(3-methoxyphenyl)-3-(1,2,3-thiadiazol-4-yl)prop-2-enamide] | 80.5%
N#CC(=Cc1ccc(Sc2ccccc2)o1)C(=O)Nc1ccccc1 [8-K05, 2-cyano-N-phenyl-3-[5-(phenylsulfanyl)furan-2-yl]prop-2-enamide] | 70%
N#CC(=Cc1ccc(F)cc1)C(=O)NCCc1cccc(Cl)c1 [8-K06, N-[2-(3-chlorophenyl)ethyl]-2-cyano-3-(4-fluorophenyl)prop-2-enamide] | 49.6%
Cc1cccc(C=C(C#N)C(=O)NC2CCCCC2)c1 [8-K07, 2-cyano-N-cyclohexyl-3-(3-methylphenyl)prop-2-enamide] | 45%
CCCCNC(=O)C(C#N)=Cc1cc(F)ccc1F [8-K08, N-butyl-2-cyano-3-(2,5-difluorophenyl)prop-2-enamide] | 39.8%
N#CC(=Cc1ccccc1)C(=O)Nc1nncs1 [8-K09, 2-cyano-3-phenyl-N-(1,3,4-thiadiazol-2-yl)prop-2-enamide] | 94.2%
COc1cc(Cl)c(C)cc1NC(=O)C(C#N)=Cc1c(C)n[nH]c1C [8-K10, N-(4-chloro-2-methoxy-5-methylphenyl)-2-cyano-3-(3,5-dimethyl-1H-pyrazol-4-yl)prop-2-enamide] | 83.6%
N#CC(=Cc1cccc2ccccc12)C(=O)Nc1ccccc1Cl [8-K11, N-(2-chlorophenyl)-2-cyano-3-(naphthalen-1-yl)prop-2-enamide] | 80.5%
N#CC(=Cc1cccc2c1OCO2)C(=O)Nc1cccc2ccccc12 [8-K12, 3-(1,3-dioxaindan-4-yl)-2-cyano-N-(naphthalen-1-yl)prop-2-enamide] | 63.4%
Cc1ccc(NC(=O)C(C#N)=Cc2ccc(C)s2)cc1 [8-K13, 2-cyano-N-(4-methylphenyl)-3-(5-methylthiophen-2-yl)prop-2-enamide] | 77%
Cc1cc(C=C(C#N)C(=O)Nc2ccncc2)c(C)n1C1CC1 [8-K14, 2-cyano-3-(1-cyclopropyl-2,5-dimethyl-1H-pyrrol-3-yl)-N-(pyridin-4-yl)prop-2-enamide] | 71.6%
Cc1ccccc1NC(=O)C(C#N)=Cc1ccsc1 [8-K15, 2-cyano-N-(2-methylphenyl)-3-(thiophen-3-yl)prop-2-enamide] | 77.5%
COc1cc(C=C(C#N)C(=O)Nc2ccc(Cl)cc2)cc(OC)c1 [8-K16, N-(4-chlorophenyl)-2-cyano-3-(3,5-dimethoxyphenyl)prop-2-enamide] | 81.7%
CN1C(=O)C(=C(C#N)C(=O)NCc2ccc(Cl)cc2)c2ccccc21 [8-K17, N-[(4-chlorophenyl)methyl]-2-cyano-2-(1-methyl-2-oxo-2,3-dihydro-1H-indol-3-ylidene)acetamide] | 78.3%
CC(C)NC(=O)C(C#N)=Cc1ccc(-c2ccccc2F)o1 [8-K18, 2-cyano-3-[5-(2-fluorophenyl)furan-2-yl]-N-(propan-2-yl)prop-2-enamide] | 16%

SMILES | viability at 48 h, 25 µM
COc1ccc(C=C(C#N)C(=O)NCc2ccccc2)cc1 [8-K19, N-benzyl-2-cyano-3-(4-methoxyphenyl)prop-2-enamide] | 77.3%
N#CC(=Cc1ccc(Cl)cc1)C(=O)Nc1ccncc1 [8-K20, 3-(4-chlorophenyl)-2-cyano-N-(pyridin-4-yl)prop-2-enamide] | 61.4%
N#CC(=Cc1ccccc1OC(F)F)C(=O)Nc1ccccc1F [8-K21, 2-cyano-3-[2-(difluoromethoxy)phenyl]-N-(2-fluorophenyl)prop-2-enamide] | 82.5%
CCc1ccc(NC(=O)C(C#N)=Cc2ccn(-c3ccccc3)n2)cc1 [8-K22, 2-cyano-N-(4-ethylphenyl)-3-(1-phenyl-1H-pyrazol-3-yl)prop-2-enamide] | 36.8%
N#CC(C(=O)Nc1ccc2c(c1)OCCO2)=C1N=C(N)c2ccccc21 [8-L03, 2-(3-amino-1H-isoindol-1-ylidene)-2-cyano-N-(2,3-dihydro-1,4-benzodioxin-6-yl)acetamide] | 83.5%
N#CC(=Cc1cccc(Cl)c1Cl)C(=O)NCc1ccccc1 [8-L04, N-benzyl-2-cyano-3-(2,3-dichlorophenyl)prop-2-enamide] | 13.2%
CC(C)NC(=O)C(C#N)=Cc1ccccc1 [8-L05, 2-cyano-3-phenyl-N-(propan-2-yl)prop-2-enamide] | 104%
Cn1cc(C=C(C#N)C(=O)NCc2ccco2)cn1 [8-L06, 2-cyano-N-[(furan-2-yl)methyl]-3-(1-methyl-1H-pyrazol-4-yl)prop-2-enamide] | 89.4%
N#CC(=Cc1ccc(F)cc1)C(=O)Nc1ccc(C(=O)O)cc1 [8-L07, 4-[2-cyano-3-(4-fluorophenyl)prop-2-enamido]benzoic acid] | 119%
CCCn1c(C)cc(C=C(C#N)C(=O)N2CCC2)c1C [8-L08, 2-(azetidine-1-carbonyl)-3-(2,5-dimethyl-1-propyl-1H-pyrrol-3-yl)prop-2-enenitrile] | 77.4%
C=CCNC(=O)C(C#N)=Cc1cccc(C(F)(F)F)c1 [8-L09, 2-cyano-N-(prop-2-en-1-yl)-3-[3-(trifluoromethyl)phenyl]prop-2-enamide] | 96.8%
Cn1cc(C=C(C#N)C(=O)NCCc2ccccc2)cn1 [8-L10, 2-cyano-3-(1-methyl-1H-pyrazol-4-yl)-N-(2-phenylethyl)prop-2-enamide] | 101%
Cc1ccc(C)c(NC(=O)C(C#N)=Cc2ccc3c(c2)OCCO3)c1 [8-L11, 2-cyano-3-(2,3-dihydro-1,4-benzodioxin-6-yl)-N-(2,5-dimethylphenyl)prop-2-enamide] | 96.2%
COCCNC(=O)C(C#N)=Cc1cccc2ccccc12 [8-L12, 2-cyano-N-(2-methoxyethyl)-3-(naphthalen-1-yl)prop-2-enamide] | 91.8%
CC(C)NC(=O)C(C#N)=Cc1ccc(C(F)(F)F)cc1 [8-L13, 2-cyano-N-(propan-2-yl)-3-[4-(trifluoromethyl)phenyl]prop-2-enamide] | 37.8%
CC(C)(C)c1ccc(C=C(C#N)C(=O)NCc2ccco2)cc1 [8-L14, 3-(4-tert-butylphenyl)-2-cyano-N-[(furan-2-yl)methyl]prop-2-enamide] | 76.1%
CCC1SC(=C(C#N)C(=O)NC)N(c2ccc(Cl)cc2)C1=O (centres unmarked) [8-L15, 2-[3-(4-chlorophenyl)-5-ethyl-4-oxo-1,3-thiazolidin-2-ylidene]-2-cyano-N-methylacetamide] | 132%
COc1ccc(-c2nn(-c3ccccc3)cc2C=C(C#N)C(N)=O)cc1 [8-L16, 2-cyano-3-[3-(4-methoxyphenyl)-1-phenyl-1H-pyrazol-4-yl]prop-2-enamide] | 109%
N#CC(=Cc1cccnc1)C(=O)Nc1cccc2ccccc12 [8-L17, 2-cyano-N-(naphthalen-1-yl)-3-(pyridin-3-yl)prop-2-enamide] | 110%
CC(NC(=O)C(C#N)=Cc1cccc(F)c1)c1ccccc1 (centres unmarked) [8-L18, 2-cyano-3-(3-fluorophenyl)-N-(1-phenylethyl)prop-2-enamide] | 34.6%
CCCn1c(C)cc(C=C(C#N)C(=O)Nc2cccc(F)c2)c1C [8-L19, 2-cyano-3-(2,5-dimethyl-1-propyl-1H-pyrrol-3-yl)-N-(3-fluorophenyl)prop-2-enamide] | 103%
C=CCNC(=O)C(C#N)=Cc1ccc(-c2ccc(F)cc2)o1 [8-L20, 2-cyano-3-[5-(4-fluorophenyl)furan-2-yl]-N-(prop-2-en-1-yl)prop-2-enamide] | 114%
N#CC(=Cc1ccc(Cl)cc1)C(N)=O [8-L21, 3-(4-chlorophenyl)-2-cyanoprop-2-enamide] | 112%
N#CC(=Cc1ccc(OC(F)F)cc1)C(=O)N1CCCC1 [8-L22, 3-[4-(difluoromethoxy)phenyl]-2-(pyrrolidine-1-carbonyl)prop-2-enenitrile] | 105%
COc1ccc(C=C(C#N)C(=O)Nc2cccc(C)c2)cc1 [8-M03, 2-cyano-3-(4-methoxyphenyl)-N-(3-methylphenyl)prop-2-enamide] | 95.7%
